System: Rat2 fibroblasts
Test: Time-lapse videomicroscopy random migration assay (cell speed, polarity)
Assay type: cell-based, rat
Settings: Rat2 cells
Method: Cells adapted to microscopy media (Life Technologies, Rockville, Md.) as described above were trypsinized, counted, and resuspended in microscopy media at 7.14×10^3 cells/mL. 1.4 mL (10,000 cells) of this cell suspension was added to a ΔT dish (Bioptechs Inc., Butler, Pa.) that had previously been coated overnight with 10 μg/mL fibronectin (Becton Dickinson) at 4° C. and then blocked with lmg/mL cell-culture-grade BSA (Sigma, St. Louis, Mo.). Cells were allowed to attach and spread for 1 hour at 37° C. before movies were initiated. 10x phase contrast movies were 4.5 hours long with a frame taken every five minutes. A custom time-lapse collection script written in IPLabs was used to automate microscope and camera function. Light was shutter controlled. […] Cell paths were generated from the calculated centroid positions and parameters (speed and membrane flow) were calculated from the resulting path file. Speed was calculated using the Central Difference Method in DIAS, which is equivalent to a root mean squared calculation. […]
Rat 2 cells were exposed to 0, 5 nM, 25 nM, 50 nM, or 500 nM cytochalasin D and motility was measured. One set of cells received no cytochalasin D. Other cells received a low dose of cytochalasin D (e.g. 5 nM or 25 nM) or a high dose of cytochalasin D. (e.g. 500 nM) The motility of the treated cells was assessed using the motility assay described above.

SMILES: C=C1[C@@H](C)[C@H]2[C@H](Cc3ccccc3)NC(=O)[C@]23[C@H](OC(C)=O)/C=C/[C@@](C)(O)C(=O)[C@@H](C)C/C=C/[C@H]3[C@@H]1O [cytochalasin D, reference compound]
- cell speed (25 nM (low dose)): increased
- cell speed (500 nM (high dose)): decreased
